Laboratory results: patent US20060057696A1, “Sugar chain synthases” (priority 2002, published 2006)
Marks after values point to notes of the source that are not given here.

Legend:
Format in all cases: biochemical
[1] = target: T1, PA-mST8Sia VI (mouse ST8Sia VI) (Mus musculus, UniProt Q8K4T1); assay: Sialyltransferase activity of PA-mST8Sia VI toward acceptor substrates; conditions: incorporation with Fetuin taken as 100, substrate 0.5 mg/ml glycolipids, 1 mg/ml glycoproteins, monosaccharides and oligosaccharides
T1 construct: amino acids 26-398 in the case of mouse ST8Sia VI; signal peptide of mouse immunoglobulin IgM (N); made in house; host or cells: COS-7 cells, transient expression of pcDSA-mST8Sia VI; protein recovered from medium on IgG-Sepharose
T1 sequence (Q8K4T1 26-398): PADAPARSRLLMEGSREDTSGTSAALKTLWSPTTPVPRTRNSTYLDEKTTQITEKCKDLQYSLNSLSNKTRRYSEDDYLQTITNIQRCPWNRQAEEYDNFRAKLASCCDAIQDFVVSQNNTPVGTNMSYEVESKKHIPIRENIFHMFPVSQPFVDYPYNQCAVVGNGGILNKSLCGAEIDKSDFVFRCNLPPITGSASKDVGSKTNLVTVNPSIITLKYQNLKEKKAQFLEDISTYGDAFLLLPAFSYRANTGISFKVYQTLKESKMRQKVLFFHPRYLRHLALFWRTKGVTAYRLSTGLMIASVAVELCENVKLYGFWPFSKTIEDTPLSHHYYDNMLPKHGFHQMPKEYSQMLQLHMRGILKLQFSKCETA
Method: (§1) Using each expression vector and lipofectamine (Invitrogen), transient expression was carried out in COS-7 cells (Kojima, N. et al. (1995) FEBS Lett. 360, 1-4). The proteins of the present invention secreted from the cells into which each expression vector had been introduced were named as PA-mST8Sia VI (mouse) and PA-hST8Sia VI (human). PA-mST8Sia VI and PA-hST8Sia VI were adsorbed to IgG-Sepharose (Amersham Pharmacia Biotech), and were then recovered from medium. Sialyltransferase activity was measured as follows according to the method of Lee et al. (Lee, Y.-C. et al. (1999) J. Biol. Chem. 274, 11958-11967). A reaction solution (10 μl) containing 50 mM MES buffer (pH 6.0), 1 mM MgCl2, 1 mM CaCl2, 0.5% Triton CF-54, 100 μM CMP-[^14C]-NeuAc, a glycoconjugate (which was added at 0.5 mg/ml in the case of glycolipids, and at 1 mg/ml in the case of glycoproteins or oligosaccharides), and a PA-mST8Sia VI or PA-hST8Sia VI suspension, was incubated at 37° C. for 3 to 20 hours. Thereafter, in the case of glycolipids, the reaction product was purified with a C-18 column (Sep-Pak Vac 100 mg; Waters) and the purified product was used as a sample, and in the case of oligosaccharides or glycoproteins, the reaction product was directly used as a sample. Thus, the obtained samples were subjected to analysis. In the case of oligosaccharides or glycolipids, the sample was spotted on a silica gel 60 HPTLC plate (Merck), and was then developed with a developing solvent consisting of ethanol:pyridine:n-butanol:water:acetic acid=100:10:10:30:3 (for oligosaccharides), a developing solvent consisting of 1-propanol:ammonia water:water=6:1:2.5 (for oligosaccharides), or a developing solvent consisting of chloroform:methanol: 0.02% CaCl2=55:45:10 (for glycolipids). In the case of glycoproteins, analysis was carried out by SDS-polyacrylamide gel electrophoresis. The obtained radioactivities were visualized with a BAS2000 radio image analyzer (Fuji Film) and then quantified.

[2] = target: T2, PA-hST8Sia VI (human ST8Sia VI) (Homo sapiens, UniProt P61647, L267F); assay: Sialyltransferase activity of PA-hST8Sia VI toward acceptor substrates; conditions: incorporation with Fetuin taken as 100, substrate 0.5 mg/ml glycolipids, 1 mg/ml glycoproteins, monosaccharides and oligosaccharides
T2 construct: amino acids 68-398 in the case of human ST8Sia VI; signal peptide of mouse immunoglobulin IgM (N); made in house; host or cells: COS-7 cells, transient expression of pcDSA-hST8Sia VI; protein recovered from medium on IgG-Sepharose
T2 sequence (P61647 68-398 L267F): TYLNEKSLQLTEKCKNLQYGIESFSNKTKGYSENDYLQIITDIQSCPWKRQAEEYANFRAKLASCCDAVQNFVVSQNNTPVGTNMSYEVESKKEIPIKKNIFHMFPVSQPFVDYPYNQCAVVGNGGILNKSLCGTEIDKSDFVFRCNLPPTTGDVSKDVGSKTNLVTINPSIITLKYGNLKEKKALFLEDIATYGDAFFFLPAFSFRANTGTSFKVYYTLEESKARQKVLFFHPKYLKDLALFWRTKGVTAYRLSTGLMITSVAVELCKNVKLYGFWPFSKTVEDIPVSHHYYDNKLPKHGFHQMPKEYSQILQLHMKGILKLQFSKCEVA
Method: as §1

[3] = target: T3, PA-mST6Gal II (mouse ST6Gal II) (Mus musculus, UniProt Q76K27, R48S); assay: Sialyltransferase activity of PA-mST6Gal II toward acceptor substrates; conditions: for Relative rate (%) Mouse ST6Gal II: PA-mST6Gal II, incorporation with Galβ1,4GlcNAc taken as 100, 0.5 mg/ml glycolipids, 1 mg/ml glycoproteins and oligosaccharides
T3 construct: amino acids 31-524 in the case of mouse ST6Gal II; signal peptide of mouse immunoglobulin IgM (N); made in house; host or cells: COS-7 cells, transient expression of pcDSA-mST6Gal II; protein recovered from medium on IgG-Sepharose
T3 sequence (Q76K27 31-524 R48S): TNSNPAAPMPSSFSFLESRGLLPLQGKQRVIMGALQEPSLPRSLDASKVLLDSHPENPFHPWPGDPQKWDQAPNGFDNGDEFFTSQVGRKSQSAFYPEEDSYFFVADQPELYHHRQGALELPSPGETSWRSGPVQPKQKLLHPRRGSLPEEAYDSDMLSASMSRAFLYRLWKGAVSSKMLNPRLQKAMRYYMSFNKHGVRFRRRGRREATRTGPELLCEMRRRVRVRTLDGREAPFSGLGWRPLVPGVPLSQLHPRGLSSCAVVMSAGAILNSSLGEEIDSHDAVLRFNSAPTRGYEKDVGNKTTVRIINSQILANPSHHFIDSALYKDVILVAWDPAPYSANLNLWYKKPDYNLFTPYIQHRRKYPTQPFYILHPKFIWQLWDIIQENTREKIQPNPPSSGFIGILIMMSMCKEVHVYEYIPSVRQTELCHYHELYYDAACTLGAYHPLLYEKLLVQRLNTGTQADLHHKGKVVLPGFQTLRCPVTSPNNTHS
Method: (§2) Using each expression vector and lipofectamine (Invitrogen), transient expression was carried out in COS-7 cells (Kojima, N. et al. (1995) FEBS Lett. 360, 1-4). The proteins of the present invention secreted from the cells into which each expression vector had been introduced were named as PA-hST6Gal II (human) and PA-mST6Gal II (mouse). PA-hST6Gal II and PA-mST6Gal II were adsorbed to IgG-Sepharose (Amersham Pharmacia Biotech), and were then recovered from medium. Sialyltransferase activity was measured as follows according to the method of Lee et al. (Lee, Y.-C. et al. (1999) J Biol. Chem. 274, 11958-11967). A reaction mixture (10 μl) containing 50 mM MES buffer (pH 6.0), 1 mM MgCl2, 1 mM CaCl2, 0.5% Triton CF-54, 100 μM CMP-[^14C]-NeuAc, a substrate sugar chain (which was added at 0.5 mg/ml in the case of glycolipids, and at 1 mg/ml in the case of glycoproteins or oligosaccharides), and a PA-hST6Gal II or PA-mST6Gal II suspension, was incubated at 37° C. for 3 to 20 hours. Thereafter, in the case of glycolipids, the reaction product was purified with a C-18 column (Sep-Pak Vac 100 mg; Waters) and the purified product was used as a sample. In the case of oligosaccharides or glycoproteins, the reaction product was directly used as a sample. Thus, the obtained sample was subjected to analysis. In the case of oligosaccharides or glycolipids, the sample was spotted on a silica gel 60 HPTLC plate (Merck), and it was then developed with a developing solvent consisting of 1-propanol:ammonia water:water=6:1:2.5 (for oligosaccharides), or a developing solvent consisting of chloroform:methanol: 0.02% CaCl2=55:45:10 (for glycolipids). In the case of glycoproteins, analysis was carried out by SDS-polyacrylamide gel electrophoresis. The obtained radioactivities were visualized with a BAS2000 radio image analyzer (Fuji Film) and then quantified.

[4] = target: T4, PA-hST6Gal II (human ST6Gal II) (Homo sapiens, UniProt Q96JF0); assay: Sialyltransferase activity of PA-hST6Gal II toward acceptor substrates; conditions: for Relative rate (%) Human ST6Gal II: PA-hST6Gal II, incorporation with Galβ1,4GlcNAc taken as 100, 0.5 mg/ml glycolipids, 1 mg/ml glycoproteins and oligosaccharides
T4 construct: amino acids 33-529 in the case of human ST6Gal II; signal peptide of mouse immunoglobulin IgM (N); made in house; host or cells: COS-7 cells, transient expression of pcDSA-hST6Gal II; protein recovered from medium on IgG-Sepharose
T4 sequence (Q96JF0 33-529): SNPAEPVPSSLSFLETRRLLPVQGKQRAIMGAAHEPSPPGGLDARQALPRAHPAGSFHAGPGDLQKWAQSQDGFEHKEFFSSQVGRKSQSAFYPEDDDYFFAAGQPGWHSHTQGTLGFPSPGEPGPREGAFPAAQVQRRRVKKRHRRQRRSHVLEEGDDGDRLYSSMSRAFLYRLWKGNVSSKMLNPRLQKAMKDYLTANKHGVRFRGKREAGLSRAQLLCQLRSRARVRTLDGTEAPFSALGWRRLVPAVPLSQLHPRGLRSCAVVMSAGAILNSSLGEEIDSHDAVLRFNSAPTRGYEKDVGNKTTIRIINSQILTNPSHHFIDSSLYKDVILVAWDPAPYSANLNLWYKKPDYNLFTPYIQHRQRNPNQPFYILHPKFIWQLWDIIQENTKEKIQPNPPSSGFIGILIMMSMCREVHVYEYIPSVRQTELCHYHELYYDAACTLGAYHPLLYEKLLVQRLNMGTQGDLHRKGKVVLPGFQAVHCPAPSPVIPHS
Method: as §2

human ST6Gal I = target: T5, human ST6Gal I (Homo sapiens, UniProt P15907); assay: Sialyltransferase activity of human ST6Gal I toward acceptor substrates (comparison); conditions: for Relative rate (%) Human ST6Gal I: incorporation with Galβ1,4GlcNAc taken as 100, 0.5 mg/ml glycolipids, 1 mg/ml glycoproteins and oligosaccharides
T5 sequence (P15907 1-406): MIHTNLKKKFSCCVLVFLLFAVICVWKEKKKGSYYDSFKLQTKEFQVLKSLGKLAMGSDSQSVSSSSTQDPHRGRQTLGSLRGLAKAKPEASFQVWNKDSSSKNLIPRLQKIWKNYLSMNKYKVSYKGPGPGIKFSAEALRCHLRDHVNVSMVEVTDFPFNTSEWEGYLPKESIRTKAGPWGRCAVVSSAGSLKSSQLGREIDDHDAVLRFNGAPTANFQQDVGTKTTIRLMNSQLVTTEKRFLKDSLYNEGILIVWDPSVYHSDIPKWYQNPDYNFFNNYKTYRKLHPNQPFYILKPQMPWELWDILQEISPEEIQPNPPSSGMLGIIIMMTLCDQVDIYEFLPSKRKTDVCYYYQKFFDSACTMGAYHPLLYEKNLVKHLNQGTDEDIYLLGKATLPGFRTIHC
Method: as §2
In contrast, there were no glycolipids, which could be substrates of both the enzymes, as far as the inventors have examined. The activity of human ST6Gal I on oligosaccharides was also examined for comparison. […] (FIG. 10).

| Compound | Relative rate (%) Mouse ST8SiaVI [1] [%] | Relative rate (%) Human ST8Sia VI [2] [%] | Relative rate (%) Mouse ST6Gal II [3] | Relative rate (%) Human ST6Gal II [4] [%] | activity of human ST6Gal I on the substrate (in words) (human ST6Gal I) | Relative rate (%) Human ST6Gal I (human ST6Gal I) | incorporation obtained with Galβ1,4GlcNAc ([3]; Mouse ST6Gal II, the value set as 100) | incorporation obtained with Galβ1,4GlcNAc ([4]; Human ST6Gal II, the value set as 100) | incorporation obtained with Galβ1,4GlcNAc (human ST6Gal I; Human ST6Gal I, the value set as 100) |
| --- | --- | --- | --- | --- | --- | --- | --- | --- | --- |
| CC(=O)N[C@H]1[C@H]([C@H](O)[C@H](O)CO)O[C@@](O[C@H]2[C@@H](O)[C@@H](CO)O[C@@H](O[C@H]3[C@H](O)[C@@H](O)C(O)O[C@@H]3CO)[C@@H]2O)(C(=O)O)C[C@@H]1O (stereo partly drawn) [3′-Sialyllactose, NeuAcα2,3Galβ1,4Glc] | 629 | 69.9 |  |  |  |  |  |  |  |
| OC[C@H]1O[C@@H](O[C@H]2[C@H](O)[C@@H](O)C(O)O[C@@H]2CO)[C@H](O)[C@@H](O)[C@H]1O (stereo partly drawn) [Lactose, Galβ1,4Glc] |  |  | 0% | 0 | showed activity | 8.7% |  |  |  |
| CC(=O)N[C@H]1C(O)O[C@H](CO)[C@H](O)[C@@H]1O[C@@H]1O[C@H](CO)[C@H](O)[C@H](O)[C@H]1O (stereo partly drawn) [Type III, Galβ1,3GalNAc] |  |  | 0% | 0 |  | 0% |  |  |  |
| Galβ1,3GalNAcβ1,4Galβ1,4Glcβ1-Cer [GA1] |  |  | 0% | 0 |  | 0% |  |  |  |
| Galβ1,3GlcNAc [Type I] |  |  | 0% | 0 |  | 4.2% |  |  |  |
| Galβ1,3GlcNAcβ1,3Galβ1,4Glc [Lacto-N-tetraose] |  |  | 0% | 0 | showed activity | 31.1% |  |  |  |
| Galβ1,4GlcNAc [Type II] |  |  | 100* % |  |  | 100*** % | *, 2.74 pmol/h/ml medium. | **, 1.03 pmol/h/ml medium. | ***, 8.14 pmol/h/ml medium. |
| Galβ1,4GlcNAcβ1,3Galβ1,4Glcβ1-Cer [Paragloboside] |  |  | 0% | 0 |  | 0.3% |  |  |  |
